Experiments:
[1] = test system: wheat; assay: Test C postemergence; assay type: in vivo, Triticum aestivum; details: postemergence; for Plant response rating, Wheat: 250 g ai/ha, scale 0 to 100 (0 no effect, 100 complete control)
How it was run: (§1)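 Visual control ratings on a 0–100 scale (100 = complete control) made against untreated controls after 13 to 15 days in greenhouse. Compounds applied in surfactant-containing solvent mixture, either preemergence to loam/sand-sown seeds or postemergence to 1- to 4-leaf plants (2–18 cm) in peat medium.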

[2] = test system: waterhemp; assay: Test C preemergence; assay type: in vivo, Amaranthus rudis; details: preemergence; for Plant response rating, Waterhemp: 125 g ai/ha, scale 0 to 100, 0 = no effect, 100 = complete control
How it was run: as §1

[3] = test system: foxtail, giant; assay: Test C preemergence; assay type: in vivo, Setaria faberii; details: preemergence; for Plant response rating, Foxtail, Giant: 125 g ai/ha, scale 0 to 100, 0 = no effect, 100 = complete control
How it was run: as §1

[4] = test system: corn; assay: Test C postemergence; assay type: in vivo, Zea mays; details: for Plant response rating (scale of 0 to 100 where 0 is no effect and 100 is complete control), Corn: Postemergence, 31 g ai/ha, visually evaluated after 13 to 15 days; for Corn plant response rating / Plant response rating, Corn: postemergence; for Corn plant response rating: 62 g ai/ha, scale 0 to 100
How it was run: as §1

[5] = test system: blackgrass; assay: Test C postemergence; assay type: in vivo, Alopecurus myosuroides; details: for Plant response rating (scale of 0 to 100 where 0 is no effect and 100 is complete control), Blackgrass: Postemergence, 31 g ai/ha, visually evaluated after 13 to 15 days; for Blackgrass plant response rating / Plant response rating, Blackgrass: postemergence; for Blackgrass plant response rating: 62 g ai/ha, scale 0 to 100
How it was run: as §1

[6] = test system: crabgrass, large; assay: Test C postemergence; assay type: in vivo, Digitaria sanguinalis; details: for Plant response rating (scale of 0 to 100 where 0 is no effect and 100 is complete control), Crabgrass, Large: Postemergence, 31 g ai/ha, visually evaluated after 13 to 15 days; for Crabgrass, Large plant response rating / Plant response rating, Crabgrass, Large: postemergence; for Crabgrass, Large plant response rating: 62 g ai/ha, scale 0 to 100
How it was run: as §1

[7] = test system: barnyardgrass; assay: Test B flood; assay type: in vivo, Echinochloa crus-galli; details: 250 g ai/ha, visual rating on 0 to 100 scale (0 no effect, 100 complete control), 13 to 15 days
How it was run: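 Each compound is applied to the floodwater of pots holding 2-leaf seedlings, water standing 3 cm over the soil throughout. Plants stay in a greenhouse 13 to 15 days before visual scoring against controls from 0 (no effect) to 100 (complete control).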

[8] = test system: oilseed rape; assay: Test C postemergence; assay type: in vivo, Brassica napus; details: postemergence; for Oilseed Rape plant response rating: 62 g ai/ha, scale 0 to 100
How it was run: as §1

[9] = test system: morningglory; assay: Test A preemergence; assay type: in vivo, Ipomoea spp.; details: preemergence; for Morningglory plant response rating (0 to 100 scale): 125 g ai/ha, visual injury approx. 10 days after treatment; for Morningglory plant response rating: 500 g ai/ha, visual injury after approx. 10 days, 0 to 100 scale (0 no effect, 100 complete control)
How it was run: (§2)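 Injury readout: eye-scored versus untreated controls, 0 to 100. Exposure period: ~10 days, greenhouse. Application: soil-directed spray over sown seed (pre) or spray on seedlings 2–10 cm tall with one or two leaves (post), compound carried in non-phytotoxic solvent including surfactant.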

[10] = test system: crabgrass, large; assay: Test C preemergence; assay type: in vivo, Digitaria sanguinalis; details: preemergence; for Plant response rating, Crabgrass, Large: 125 g ai/ha, scale 0 to 100, 0 = no effect, 100 = complete control
How it was run: as §1

[11] = test system: morningglory; assay: Test A postemergence; assay type: in vivo, Ipomoea spp.; details: Postemergence
How it was run: as §2

[12] = test system: johnsongrass; assay: Test C postemergence; assay type: in vivo, Sorghum halepense; details: for Plant response rating (scale of 0 to 100 where 0 is no effect and 100 is complete control), Johnsongrass: Postemergence, 31 g ai/ha, visually evaluated after 13 to 15 days; for Johnsongrass plant response rating / Plant response rating, Johnsongrass: postemergence; for Johnsongrass plant response rating: 62 g ai/ha, scale 0 to 100
How it was run: as §1

[13] = test system: pigweed; assay: Test A postemergence; assay type: in vivo, Amaranthus retroflexus; details: Postemergence
How it was run: as §2

[14] = 31 g ai/ha, visual rating, scale 0 to 100 (0 no effect, 100 complete control), 13 to 15 days
[15] = 62 g ai/ha, scale 0 to 100 (0 no effect, 100 complete control), 13 to 15 days
[16] = 250 g ai/ha, scale 0 to 100, 0 is no effect, 100 is complete control
[17] = 250 g ai/ha, scale 0 to 100 (0 no effect, 100 complete control)
[18] = 125 g ai/ha, scale 0 to 100, 0 no effect, 100 complete control
[19] = 125 g ai/ha, 0 to 100 scale, 0 no effect, 100 complete control
[20] = 500 g ai/ha, 0 to 100 scale (0 no effect, 100 complete control)

SMILES	Plant response rating, Wheat [1]	Waterhemp plant response rating [2, 14]	Waterhemp plant response rating [2, 15]	Plant response rating, Waterhemp ([2]; 13 to 15 days)	Waterhemp plant response rating [2, 16]	Foxtail, Giant plant response rating [3, 14]	Foxtail, Giant plant response rating [3, 15]	Plant response rating, Foxtail, Giant ([3]; 13 to 15 days)	Foxtail, Giant plant response rating [3, 16]	Plant response rating (scale of 0 to 100 where 0 is no effect and 100 is complete control), Corn [4]	Corn plant response rating [4]	Plant response rating, Corn [4, 17]	Plant response rating, Corn [4, 18]	Plant response rating (scale of 0 to 100 where 0 is no effect and 100 is complete control), Blackgrass [5]	Blackgrass plant response rating [5]	Plant response rating, Blackgrass [5, 17]	Plant response rating, Blackgrass [5, 18]	Plant response rating (scale of 0 to 100 where 0 is no effect and 100 is complete control), Crabgrass, Large [6]	Crabgrass, Large plant response rating [6]	Plant response rating, Crabgrass, Large [6, 17]	further results
CCCNC(=O)c1cc(CCC)n(Cc2cc(C(F)(F)F)nn2C)n1 [Compound 198]	10	98	98	100	100	98	100	100	100	5	10	15	10	0	20	30	40	5	5	30	Wheat plant response rating ([1]; scale 0 to 100): 5; Plant response rating, Crabgrass, Large [6, 18]: 15; Plant response rating, Barnyardgrass [7]: 60; Oilseed Rape plant response rating [8]: 50; Plant response rating, Oilseed Rape [8, 17]: 60; Plant response rating, Oilseed Rape [8, 18]: 70; Morningglory plant response rating (0 to 100 scale) [9]: 100; Morningglory plant response rating [9]: 100; Crabgrass, Large plant response rating [10, 14]: 98; Crabgrass, Large plant response rating [10, 15]: 100; Plant response rating, Crabgrass, Large ([10]; 13 to 15 days): 100; Crabgrass, Large plant response rating [10, 16]: 100; Morningglory plant response rating [11, 19]: 80; Morningglory plant response rating [11, 20]: 100; Plant response rating (scale of 0 to 100 where 0 is no effect and 100 is complete control), Johnsongrass [12]: 5; Johnsongrass plant response rating [12]: 5; Plant response rating, Johnsongrass [12, 17]: 10; Plant response rating, Johnsongrass [12, 18]: 5; Pigweed plant response rating [13, 19]: 100; Pigweed plant response rating [13, 20]: 100
CCc1cc(C(=O)NCC2CC2)nn1Cc1ccnc(C(F)(F)F)c1 [Compound 199]	5	98	100	100	100	100	100	100	100	5	10	65	85	0	10	30	10	10	10	60	Plant response rating, Crabgrass, Large [6, 18]: 40; Plant response rating, Barnyardgrass [7]: 55; Oilseed Rape plant response rating [8]: 45; Plant response rating, Oilseed Rape [8, 17]: 65; Plant response rating, Oilseed Rape [8, 18]: 55; Morningglory plant response rating (0 to 100 scale) [9]: 90; Morningglory plant response rating [9]: 100; Crabgrass, Large plant response rating [10, 14]: 98; Crabgrass, Large plant response rating [10, 15]: 100; Plant response rating, Crabgrass, Large ([10]; 13 to 15 days): 100; Crabgrass, Large plant response rating [10, 16]: 100; Morningglory plant response rating [11, 19]: 90; Morningglory plant response rating [11, 20]: 100; Plant response rating (scale of 0 to 100 where 0 is no effect and 100 is complete control), Johnsongrass [12]: 5; Johnsongrass plant response rating [12]: 5; Plant response rating, Johnsongrass [12, 17]: 55; Plant response rating, Johnsongrass [12, 18]: 40; Pigweed plant response rating [13, 19]: 100; Pigweed plant response rating [13, 20]: 100
CCc1cc(C(=O)NC2CC2)nn1Cc1ccnc(OCC(F)(F)F)c1 [Compound 200]	10	100	100	100	100	75	85	98	100	5	5	20	10	5	10	15	15	10	10	25	Plant response rating, Crabgrass, Large [6, 18]: 10; Plant response rating, Barnyardgrass [7]: 25; Oilseed Rape plant response rating [8]: 30; Plant response rating, Oilseed Rape [8, 17]: 60; Plant response rating, Oilseed Rape [8, 18]: 60; Morningglory plant response rating (0 to 100 scale) [9]: 40; Morningglory plant response rating [9]: 100; Crabgrass, Large plant response rating [10, 14]: 100; Crabgrass, Large plant response rating [10, 15]: 100; Plant response rating, Crabgrass, Large ([10]; 13 to 15 days): 100; Crabgrass, Large plant response rating [10, 16]: 100; Morningglory plant response rating [11, 19]: 100; Morningglory plant response rating [11, 20]: 100; Plant response rating (scale of 0 to 100 where 0 is no effect and 100 is complete control), Johnsongrass [12]: 10; Johnsongrass plant response rating [12]: 10; Plant response rating, Johnsongrass [12, 17]: 20; Plant response rating, Johnsongrass [12, 18]: 10; Pigweed plant response rating [13, 19]: 100; Pigweed plant response rating [13, 20]: 100

— US20150105252A1, “SUBSTITUTED PYRAZOLES AS HERBICIDES” (E I DU PONT DE NEMOURS AND COMPANY, priority 2013, published 2015)
